Source: patent publication US11433048B2, “CXCR4 receptor-binding compounds useful for increasing interferon level” (CENTRE NATIONAL de la RECHERCHE SCIENTIFIQUE, priority 2016, dated 2022)
Structures can show the parent of a compound that is named as a salt. Where two headings read alike, the source gives them in different places.

Tests used:
[1] = test system: HIV-activated pDC; format: cell-based, human
[2] = test system: HIV-activated pDC; details: ELISA, AMD3100 20 μM pre-treatment, then CB, HIV overnight
[3] = AMD3100 20 μM pre-incubation, histamine or CB 10 μM, HIV-X4 overnight, normalized to RPL13A
[4] = AMD3100 alone, HIV-stimulated pDC
[5] = AMD-3100 20 μM, then CB 10 μM, HIV overnight, normalized to RPL13A

SMILES: c1cc(CN2CCCNCCNCCCNCC2)ccc1CN1CCCNCCNCCCNCC1 [AMD3100, plerixafor]
- IFN-a mRNA expression inhibited by histamine or CB in HIV-activated pDC (FIG. 1) [1, 3]: could restore
- IFN-β mRNA expression inhibited by histamine or CB in HIV-activated pDC (FIG. 1) [1, 3]: could restore
- TRAIL mRNA expression inhibited by histamine or CB in HIV-activated pDC (FIG. 1) [1, 3]: could restore
- biological activities of histamine and CB on HIV activated-pDC ([1]; AMD3100 (20 μM) 1 hour, then histamine or CB (10 μM) 1 hour, HIV-1 overnight): drastically abolished
- TRAIL expression by HIV-activated pDC [1, 4]: did not block
- type I IFN expression by HIV-activated pDC [1, 4]: did not block
- IFN-stimulated gene 56 (ISG56) mRNA expression in HIV-activated pDC (restoration, FIG. 3A) [1, 5]: confirmed
- IFN-γ mRNA expression in HIV-activated pDC (restoration, FIGS. 3A-3C) [1, 5]: confirmed
- IL-6 mRNA expression in HIV-activated pDC (restoration, FIG. 3C) [1, 5]: confirmed
- IFN-a production inhibited by histamine or CB in HIV-activated pDC (FIG. 2) [2]: could restore

SMILES: NC(=NCc1ccc(Cl)cc1)SCCCc1cnc[nH]1 [CB, clobenpropit dihydrobromide]
- production of IFN-I by HIV-stimulated pDC ([1]; amine-type compounds, 10 μM): inhibit

SMILES: Cl.Cl.NCCc1c[nH]cn1 [histamine, Histamine dihydrochloride]
- production of IFN-I by HIV-stimulated pDC [1]: inhibit
